Here are results for one compound from patent publication US8629251B2, “Specific detection and quantification of phosphatidic acid using an Arabidopsis trigalactosyldiacylglycerol-4 (TGD4) protein” (Board of Trustees of Michigan State University, priority 2008, dated 2014).

Experiment [1] has as its target T1, Arabidopsis TGD4, DsRED-ΔTGD4-His (hydrophobic region 287D-309F deleted, SEQ ID NO:133) (Arabidopsis thaliana, UniProt Q9M903, DEL287-309).
T1 construct: b369 deletes nt 859-924 (22 codons)
Put plainly: Liposome association assay, DsRED-ΔTGD4-His. Type of experiment: binding. As to conditions: dioleoyl-PtdOH/dioleoyl-PtdCho liposomes, 0 to 80% PtdOH, FIG. 19B. Here is the method:
Liposome Association Assay:
The liposome association assay was adapted from (Awai et al., 2006, Lu and Benning, 2009) with minor modifications. Dioleoyl-PtdCho and PtdOH with different acyl chain lengths and desaturation levels were used for making liposomes. In other liposomes 1-palmitoyl-2-(12-((7-nitro-2-1,3-benzoxadiazol-4-yl)amino)dodecanoyl)-sn-glycero-3-phosphate (NBD-PtdOH; Avanti, Alabaster, Ala.) was used. The lipids were mixed at indicated ratios to give a total lipid amount of 250 μg. The lipids were dried under a stream of nitrogen, resuspended in 0.5 ml TBS buffer with 0.2 M choline chloride and hydrated at 37° C. for 1 hour followed by vigorous vortexing for 2 minutes. The resulting multi-lamellar vesicles were centrifuged at 13,000×g for 10 minutes and then washed once with TBS buffer containing 0.2 M choline chloride. The liposomes were resuspended into 100 μl TBS buffer with 0.2 M choline chloride and incubated with 2 μg purified DsRED-TGD4-His protein and its derivatives. The protein liposome mixture was incubated on ice for 30 minutes followed by centrifugation at 13,000×g for 10 minutes and two washes with 500 μl TBS containing 0.2 M choline chloride. The resulting protein-liposome pellet was resuspended in 20 μl 2× Laemmli buffer (Laemmli, 1970) and processed by SDS-PAGE (Shapiro and Maizel, 1969).

The subject of experiment [2] is DsRed protein (Discosoma sp. red fluorescent protein). The experiment in a line: Liposome-association assay, DsRed control. Type of experiment: binding. The conditions noted are these: FIG. 3B. Here is the method: (§1) The liposome association assay was performed as previously reported. (31). Briefly, lipids (dioleoyl-phosphatidylcholine, DOPC or dioleoyl-PA, DOPA) were incubated in TBS (50 mM Tris-HCl, pH 7; 0.1 M NaCl) at 37° C. for an hour followed by vigorous vortexing for 5 min. The liposomes were precipitated at 20,000 g and washed twice with ice-cold TBS.
(§2) Liposomes (200 μg) were mixed with purified DsRed-TGD2 fusion protein and TBS to make a final 100 μL solution. The mixture was incubated at 30° C. for 30 min and washed twice with ice-cold TBS by centrifugation at 20,000 g at 4° C. The liposome pellet mixed with sample buffer was analyzed by SDS-PAGE (28). Immuno-detection of the His-tagged protein was accomplished using the above mentioned Penta-His antibody at 1:15,000 and the anti mouse antibody at 1:75,000 dilution.
(§3) The protein band was visualized by chemiluminescent detection kit from Sigma. The autoradiography film was scanned, distinct protein bands were quantified using computer software Multi Gauge V3.0 (Fujifilm USA, Valhalla, N.Y.) and resulted data were plotted and analyzed by OriginPro8 (Origin lab corporation, Northampton, Mass.).

The target in experiment [3] is T2, Arabidopsis TGD2, DsRed-TGD2C T9 (residues 221-250, SEQ ID NO:40) (Arabidopsis thaliana, UniProt Q9LTR2).
T2 sequence (Q9LTR2 221-250): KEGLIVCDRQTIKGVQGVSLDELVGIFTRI
Put plainly: Liposome-association assay, TGD2C T9 (221-250). Type of experiment: binding. Here is the method:
as §1, §2, §3

The target of experiment [4] is T3, Arabidopsis TGD2, DsRed-TGD2C WT (DR-WT) fusion protein, residues 119-381, SEQ ID NO:107 (Arabidopsis thaliana, UniProt Q9LTR2).
T3 construct: made in house; host or cells: Escherichia coli BL21 (DE3)
T3 sequence (Q9LTR2 119-381): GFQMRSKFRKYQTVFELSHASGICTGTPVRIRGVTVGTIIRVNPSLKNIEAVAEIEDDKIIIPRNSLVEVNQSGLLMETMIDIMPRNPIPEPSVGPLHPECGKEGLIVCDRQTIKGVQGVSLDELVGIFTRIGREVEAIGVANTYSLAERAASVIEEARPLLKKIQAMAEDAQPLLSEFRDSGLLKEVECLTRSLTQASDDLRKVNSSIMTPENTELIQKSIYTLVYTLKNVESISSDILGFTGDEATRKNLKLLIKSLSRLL
Put plainly: Liposome-association assay (mixed PA/PC liposomes), DsRed-TGD2C WT. Type of experiment: binding. Here is the method: FIG. 2A: Analysis by liposome-association assay. A mixture of dioleoyl-PA and dioleoyl-PC was used where the weight percent of PA was varied from 0-100% (wt/wt), maintaining the total lipid invariant at 250 μg. 1 μg protein was used. P, protein recovered in the absence of lipids.
In this assay, purified recombinant proteins were incubated with liposomes for 30 min at 30° C. before centrifugation at 20,000 g for 10 min to pellet the liposomes. Proteins bound to the liposomes were found associated with the lipid pellet, whereas non-binding proteins remained in the supernatant. In an effort to determine the optimal concentration of PA required for high specificity binding, a PA/PC liposome mixture containing varying weight fractions of PA was prepared and incubated with DsRed-TGD2CWT or DsRed alone.
as §1, §2, §3

Experiment [5] addresses Arabidopsis TGD2, DsRed-TGD2C D2 (Δ221-225, SEQ ID NO:46) (Arabidopsis thaliana, UniProt Q9LTR2, DEL221-225). Put plainly: Liposome-association assay, TGD2C D2 (Δ221-225). Type of experiment: binding. The conditions noted are these: FIG. 3C. Here is the method: as §1, §2, §3
The target in experiment [6] is T4, Arabidopsis TGD2, N-terminally truncated TGD2-dTMD-His (from Gly-119) (Arabidopsis thaliana, UniProt Q9LTR2).
T4 sequence (Q9LTR2 119-381): T3 sequence (Q9LTR2 119-381)
Put plainly: Membrane lipid binding assay, TGD2-dTMD-His. As to conditions: lipid membranes, FIG. 8A. Here is the method: Commercially available membrane strips prespotted with lipids were purchased. (Echelon Biosciences, Salt Lake City, Utah). Prokaryotic phosphatidylcholine and PA were also purchased (Avanti Polar Lipids). Prokaryotic monogalactolipid, digalactolipid, sulfolipid, and phosphatidylglycerol were purified from Synechocystis PCC6803 by TLC of lipid extracts. Eukaryotic monogalactolipid and digalactolipid was isolated from pea leaves.
Approximately 5 μg of lipids were spotted onto a Hybond-C membrane (Amersham Pharmacia Biosciences). The membranes were first blocked with 3% BSA in TBST (10 mM Tris-HCl, pH 8.0/150 mM NaCl/0.1% Tween 20) for 1 h and incubated in 0.5 μg/ml TGD2 protein solution in the blocking buffer at 4° C. overnight. The blots were washed five times with TBST and soaked in 3% BSA in TBST with a Penta-His mouse monoclonal antibody (Qiagen) at a 1:1,000 dilution at room temperature overnight. The membranes were washed twice with TBST and soaked in 3% BSA in TBST with alkaline phosphatase-conjugated anti-mouse antibody (Jackson ImmunoResearch) at a 1:5,000 dilution for 1 hour at room temperature. After washing with TBST twice, the protein was detected by using the Immun-Star AP detection system (Bio-Rad).

Where [7] appears, read: DR-WT as quantification control, mixed PA/PC liposomes, FIGS. 5A-5C.

T1 sequence (Q9M903 other isoform, or with tags, fused parts or gaps DEL287-309): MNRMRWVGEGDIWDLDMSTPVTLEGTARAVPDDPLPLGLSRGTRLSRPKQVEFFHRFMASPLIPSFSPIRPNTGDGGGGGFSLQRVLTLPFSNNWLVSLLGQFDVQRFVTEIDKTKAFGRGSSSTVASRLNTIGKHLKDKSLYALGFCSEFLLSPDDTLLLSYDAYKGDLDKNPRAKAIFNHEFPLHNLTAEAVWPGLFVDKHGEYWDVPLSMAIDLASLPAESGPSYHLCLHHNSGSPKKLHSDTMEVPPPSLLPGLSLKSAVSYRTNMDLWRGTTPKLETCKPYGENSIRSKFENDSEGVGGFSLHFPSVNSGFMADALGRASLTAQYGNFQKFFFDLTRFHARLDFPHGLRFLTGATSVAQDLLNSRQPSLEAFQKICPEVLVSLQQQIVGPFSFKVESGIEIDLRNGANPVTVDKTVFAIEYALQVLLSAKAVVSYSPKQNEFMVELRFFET
Arabidopsis TGD2, DsRed-TGD2C D2 (Δ221-225, SEQ ID NO:46), sequence (Q9LTR2 other isoform, or with tags, fused parts or gaps DEL221-225): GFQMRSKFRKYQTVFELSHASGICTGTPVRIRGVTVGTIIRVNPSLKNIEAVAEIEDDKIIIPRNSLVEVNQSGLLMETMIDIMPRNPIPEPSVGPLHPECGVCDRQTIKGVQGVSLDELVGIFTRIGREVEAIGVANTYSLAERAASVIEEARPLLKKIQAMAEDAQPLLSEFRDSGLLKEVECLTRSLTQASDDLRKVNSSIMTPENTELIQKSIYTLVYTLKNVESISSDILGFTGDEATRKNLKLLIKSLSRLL

For `CCCCCCCC/C=C\CCCCCCCC(=O)OC[C@H](COP(=O)(O)O)OC(=O)CCCCCCC/C=C\CCCCCCCC` [PA, phosphatidic acid], the PtdOH binding activity entry in experiment [1] was “did not require the central hydrophobic region of TGD4”. For the same compound, the “binding to PC or PA” value in experiment [2] is “does not display binding”. The PA binding result in experiment [3] is “no interaction to PA was detected”; in experiment [5] it was “decreased binding activity dramatically”. Further, the “Hill number, PA binding” value in experiment [4] (setting [7]) is recorded as 2.8; in experiment [4] (dioleoyl-PA/dioleoyl-PC liposomes, FIG. 2B), 5.8. Further, in experiment [4] (setting [7]), the “modified Kd, PA binding” value was 37.66 mol %. The “binding to PA or PC” value in experiment [4] (PC, PA/PC or PA liposomes, FIG. 3B) is “significant binding”. Besides, the binding of lipids result in experiment [6] is reported as “bound”.
